Values joined by “and” are separate entries in the source; they are usually repeats but may differ in a detail not shown here. Equal entries are not always repeated. ± gives the expanded uncertainty stated by the source.
Conditions: for mass density / viscosity / speed of sound / vapor or sublimation pressure: Liquid; for mass density: Vibrating tube method; for surface tension liquid-gas: Drop volume; for viscosity: Capillary tube (Ostwald / Ubbelohde) method; for speed of sound: Frequency=3 MHz, Single path-length method; for vapor or sublimation pressure: Ebulliometric method (Recirculating still)

O=Cc1cccs1 [2-thiophenealdehyde]
Conditions	mass density	speed of sound [m/s]	viscosity [mPa·s]
313.15 K, 65000 kPa	1238.47 ± 0.98 kg/m3	–	–
315.65 K, 100 kPa	1199.69 ± 0.57 kg/m3	1404.1 ± 0.95	1.528 ± 0.018
318.15 K, 100 kPa	1197.17 ± 0.57 kg/m3 and 1197.16 ± 0.57 kg/m3	1395.9 ± 0.95	1.473 ± 0.018
318.15 K, 2000 kPa	1198.45 ± 0.57 kg/m3	–	–
318.15 K, 5000 kPa	1200.45 ± 0.58 kg/m3	–	–
318.15 K, 7000 kPa	1201.76 ± 0.59 kg/m3	–	–
318.15 K, 10000 kPa	1203.7 ± 0.6 kg/m3	–	–
318.15 K, 15000 kPa	1206.86 ± 0.63 kg/m3	–	–
318.15 K, 20000 kPa	1209.92 ± 0.65 kg/m3	–	–
318.15 K, 25000 kPa	1212.9 ± 0.68 kg/m3	–	–
318.15 K, 30000 kPa	1215.8 ± 0.71 kg/m3	–	–
318.15 K, 35000 kPa	1218.62 ± 0.74 kg/m3	–	–
318.15 K, 40000 kPa	1221.37 ± 0.77 kg/m3	–	–
318.15 K, 45000 kPa	1224.05 ± 0.81 kg/m3	–	–
318.15 K, 50000 kPa	1226.67 ± 0.85 kg/m3	–	–
318.15 K, 55000 kPa	1229.23 ± 0.88 kg/m3	–	–
318.15 K, 60000 kPa	1231.73 ± 0.92 kg/m3	–	–
318.15 K, 65000 kPa	1234.18 ± 0.96 kg/m3	–	–
320.65 K, 100 kPa	1194.65 ± 0.56 kg/m3	1387.6 ± 0.95	1.418 ± 0.017
323.15 K, 100 kPa	1192.12 ± 0.56 kg/m3	1379.3 ± 0.95	1.375 ± 0.017
323.15 K, 2000 kPa	1193.44 ± 0.57 kg/m3	–	–
323.15 K, 5000 kPa	1195.49 ± 0.58 kg/m3	–	–
323.15 K, 7000 kPa	1196.83 ± 0.59 kg/m3	–	–
323.15 K, 10000 kPa	1198.82 ± 0.6 kg/m3	–	–
323.15 K, 15000 kPa	1202.04 ± 0.62 kg/m3	–	–
323.15 K, 20000 kPa	1205.17 ± 0.65 kg/m3	–	–
323.15 K, 25000 kPa	1208.22 ± 0.68 kg/m3	–	–
323.15 K, 30000 kPa	1211.17 ± 0.7 kg/m3	–	–
323.15 K, 35000 kPa	1214.05 ± 0.73 kg/m3	–	–
323.15 K, 40000 kPa	1216.86 ± 0.77 kg/m3	–	–
323.15 K, 45000 kPa	1219.59 ± 0.8 kg/m3	–	–
323.15 K, 50000 kPa	1222.26 ± 0.84 kg/m3	–	–
323.15 K, 55000 kPa	1224.86 ± 0.87 kg/m3	–	–
323.15 K, 60000 kPa	1227.41 ± 0.91 kg/m3	–	–
323.15 K, 65000 kPa	1229.89 ± 0.95 kg/m3	–	–
325.65 K, 100 kPa	1189.6 ± 0.56 kg/m3	1371.1 ± 0.95	1.325 ± 0.016
328.15 K, 100 kPa	1187.08 ± 0.56 kg/m3 and 1187.07 ± 0.56 kg/m3	1362.8 ± 0.95	1.275 ± 0.015
328.15 K, 2000 kPa	1188.42 ± 0.57 kg/m3	–	–
328.15 K, 5000 kPa	1190.52 ± 0.58 kg/m3	–	–
328.15 K, 7000 kPa	1191.9 ± 0.59 kg/m3	–	–
328.15 K, 10000 kPa	1193.93 ± 0.6 kg/m3	–	–
328.15 K, 15000 kPa	1197.23 ± 0.62 kg/m3	–	–
328.15 K, 20000 kPa	1200.43 ± 0.64 kg/m3	–	–
328.15 K, 25000 kPa	1203.54 ± 0.67 kg/m3	–	–
328.15 K, 30000 kPa	1206.56 ± 0.7 kg/m3	–	–
328.15 K, 35000 kPa	1209.49 ± 0.73 kg/m3	–	–
328.15 K, 40000 kPa	1212.35 ± 0.76 kg/m3	–	–
328.15 K, 45000 kPa	1215.13 ± 0.79 kg/m3	–	–
328.15 K, 50000 kPa	1217.85 ± 0.83 kg/m3	–	–
328.15 K, 55000 kPa	1220.5 ± 0.87 kg/m3	–	–
328.15 K, 60000 kPa	1223.09 ± 0.9 kg/m3	–	–
328.15 K, 65000 kPa	1225.62 ± 0.94 kg/m3	–	–
330.65 K, 100 kPa	1184.55 ± 0.56 kg/m3	1354.6 ± 0.95	1.233 ± 0.015
333.15 K, 100 kPa	1182.02 ± 0.56 kg/m3	1346.4 ± 0.95	1.194 ± 0.014
333.15 K, 2000 kPa	1183.41 ± 0.57 kg/m3	–	–
333.15 K, 5000 kPa	1185.56 ± 0.58 kg/m3	–	–
333.15 K, 7000 kPa	1186.96 ± 0.58 kg/m3	–	–
333.15 K, 10000 kPa	1189.04 ± 0.6 kg/m3	–	–
333.15 K, 15000 kPa	1192.42 ± 0.62 kg/m3	–	–
333.15 K, 20000 kPa	1195.69 ± 0.64 kg/m3	–	–
333.15 K, 25000 kPa	1198.86 ± 0.67 kg/m3	–	–
333.15 K, 30000 kPa	1201.94 ± 0.69 kg/m3	–	–
333.15 K, 35000 kPa	1204.93 ± 0.72 kg/m3	–	–
333.15 K, 40000 kPa	1207.85 ± 0.75 kg/m3	–	–
333.15 K, 45000 kPa	1210.68 ± 0.79 kg/m3	–	–
333.15 K, 50000 kPa	1213.45 ± 0.82 kg/m3	–	–
333.15 K, 55000 kPa	1216.14 ± 0.86 kg/m3	–	–
333.15 K, 60000 kPa	1218.77 ± 0.89 kg/m3	–	–
333.15 K, 65000 kPa	1221.34 ± 0.93 kg/m3	–	–
335.65 K, 100 kPa	1179.49 ± 0.56 kg/m3	1338.2 ± 0.95	1.155 ± 0.014
338.15 K, 100 kPa	1176.97 ± 0.56 kg/m3	1330.2 ± 0.95	1.121 ± 0.014
338.15 K, 2000 kPa	1178.39 ± 0.57 kg/m3	–	–
338.15 K, 5000 kPa	1180.59 ± 0.58 kg/m3	–	–
338.15 K, 7000 kPa	1182.03 ± 0.58 kg/m3	–	–
338.15 K, 10000 kPa	1184.16 ± 0.59 kg/m3	–	–
338.15 K, 15000 kPa	1187.61 ± 0.61 kg/m3	–	–
338.15 K, 20000 kPa	1190.94 ± 0.64 kg/m3	–	–
338.15 K, 25000 kPa	1194.18 ± 0.66 kg/m3	–	–
338.15 K, 30000 kPa	1197.32 ± 0.69 kg/m3	–	–
338.15 K, 35000 kPa	1200.37 ± 0.72 kg/m3	–	–
338.15 K, 40000 kPa	1203.34 ± 0.75 kg/m3	–	–
338.15 K, 45000 kPa	1206.23 ± 0.78 kg/m3	–	–
338.15 K, 50000 kPa	1209.04 ± 0.81 kg/m3	–	–
338.15 K, 55000 kPa	1211.78 ± 0.85 kg/m3	–	–
338.15 K, 60000 kPa	1214.46 ± 0.88 kg/m3	–	–
338.15 K, 65000 kPa	1217.07 ± 0.92 kg/m3	–	–

Conditions	surface tension liquid-gas [mN/m]	vapor or sublimation pressure [kPa]
315.65 K	43.89 ± 0.32	–
318.15 K	43.6 ± 0.32	–
320.65 K	43.28 ± 0.32	–
323.15 K	43.01 ± 0.32	–
325.65 K	42.68 ± 0.32	–
328.15 K	42.39 ± 0.32	–
330.65 K	42.09 ± 0.31	–
333.15 K	41.76 ± 0.31	–
335.65 K	41.46 ± 0.31	–
336.42 K	–	0.66 ± 0.1
338.15 K	41.21 ± 0.31	–
340.7 K	–	0.85 ± 0.1
345.63 K	–	1.135 ± 0.1
349.65 K	–	1.4 ± 0.1
353.7 K	–	1.725 ± 0.1
356.19 K	–	1.915 ± 0.1
359.55 K	–	2.265 ± 0.1
361.67 K	–	2.55 ± 0.1
364.68 K	–	2.925 ± 0.1
366.94 K	–	3.265 ± 0.1
368.98 K	–	3.6 ± 0.1
372.07 K	–	4.14 ± 0.1
374.68 K	–	4.645 ± 0.1
376.79 K	–	5.065 ± 0.1
377.74 K	–	5.3 ± 0.1
379.92 K	–	5.8 ± 0.1
382.69 K	–	6.5 ± 0.1
386.72 K	–	7.585 ± 0.1
389.41 K	–	8.415 ± 0.1
391.94 K	–	9.285 ± 0.1
394.82 K	–	10.41 ± 0.1
399.42 K	–	12.29 ± 0.1
401.02 K	–	13.11 ± 0.1
403 K	–	14.06 ± 0.1
404.9 K	–	15.05 ± 0.1
407.06 K	–	16.14 ± 0.1
408.95 K	–	17.25 ± 0.1
411.16 K	–	18.6 ± 0.1
412.82 K	–	19.66 ± 0.1
413.9 K	–	20.41 ± 0.1
415.91 K	–	21.8 ± 0.11
418.01 K	–	23.36 ± 0.11
420.05 K	–	24.95 ± 0.11
422.07 K	–	26.6 ± 0.11
424.04 K	–	28.25 ± 0.11
426.15 K	–	30.11 ± 0.11
428.14 K	–	32.01 ± 0.11
429.02 K	–	32.92 ± 0.11
430.17 K	–	34.05 ± 0.11
431.54 K	–	35.47 ± 0.11
433.17 K	–	37.2 ± 0.11

Source: the NIST ThermoML archive (doi:10.1016/j.jct.2017.07.008)
